Measured values published in patent EP0327365B1, “Improvements in or relating to modified haptens useful as imaging and therapeutic agents” (HYBRITECH INCORPORATED, priority 1988, dated 1989).

Experiments:
[1] = test system: monoclonal antibody CHA255; test: Determination of hapten-antibody dissociation rates; type: binding, BALB/c mice; settings: 22°C; indium complex of hapten from CHA255 after 100 fold excess of indium-115 loaded hapten
Method: Hapten-antibody dissociation rates were determined using monoclonal antibody CHA255, prepared as described in Example 2A, by measuring the quantity of ¹¹¹In³⁺ chelate released from the antibody hapten complex as a function of time after addition of a 100 fold excess (over antibody binding sites) of indium-115 loaded hapten. Thus, for each hapten, a 700 »l solution was prepared containing: antibody at a concentration of 160 nM; indium loaded hapten, trace labeled with ¹¹¹In (total concentration = 160 nM); normal human serum albumin at a total concentration of 1.5 mg/mL; and isotonic phosphate buffered saline, (10 mM PO₄²⁻, 150 mM NaCl, pH 7.2). Indium-115 loaded hapten was added to a final Concentration of […]. Reactions were stirred by placing the sample containers ir a rack mounted on a vortexer head.
At various times after addition of the excess hapten, […] portions of the reaction solutions were transferred to Centrifree tubes (Amicon Corperation, Danvers, Massachusetts) and centrifuged at 1500xg for eight to ten minutes. The reaction time was taken to be the time between addition of the excess hapten and the time the centrifuge reached the desired velocity. Six timepoints, each in duplicate, were obtained over a range of about two reaction half-lives for each rate constant determination. A 200 »l portion from each centrifuged and uncentrifuged solution was then counted for ¹¹¹In. The relative concentration of free hapten was taken to be the ratio of counts in the centrifuged solution to the uncentrifuged solution at each timepoint. Times were recorded to the nearest tenth of a minute.
Room temperature rate constants were measured without the aid of a constant temperature bath. The ambient temperature remained at 22°±1 C.
Rate constants and standard deviations were obtained from a plot of the logarithm of relative complex concentration vs. time. Data were analyzed using the linear regression module of the RS/1 Program (BBN Software Products Corporation, Cambridge, Massachusetts).
Control samples were included in each experiment to determine: A) that the initial condition of 100% of labeled hapten bound to antibody was met, and B) that in the absence of antibody, 100% of counts were able to penetrate the Centrifree membrane. […]

T-380 tumors = test: Hapten biodistribution, premix protocol with bifunctional antibody ECH037.2; type: in vivo, nude mice; design: TOTAL RECOV: unit not given here; settings: for % DOSE PER GRAM, KIDNEY / % DOSE PER GRAM, LIVER / % DOSE PER GRAM, TUMOR / FECES / TOTAL RECOV / URINE / % DOSE PER GRAM, BLOOD / TUMOR/BLOOD: premix with 20 µg ECH037.2; for % DOSE PER GRAM, BLOOD: 111In-labeled hapten i.v.; for TUMOR/BLOOD: ratio; for Percent Injected Dose in Feces: premix protocol (Table VI); for %Dose per Gram, Blood / %Dose per Gram, Tumor: premix with 20 µg ECH037.2 (Table VIII)
Method: Two protocols were used for examining the biodistribution of the derivatized haptens in the presence of the bifunctional antibody ECH037.2. In a premix protocol, ECH037.2 and the derivatized hapten were combined prior to injection in the animals. In the prelocalization protocol, ECH037.2 was injected into the animals, and the antibody was allowed to prelocalize for 24 hours prior to injection of the radiolabeled hapten.
Biodistribution studies were performed in nude mice carrying subcutaneous implants of the human colon carcinoma cell line T-380 which expresses the carcinoembryonic antigen (CEA) recognized by ECH037.2. Briefly, Balb/C Nu/Nu mice were injected subcutaneously with a minced preparation of T-380 tumor implants and maintained for approximately two weeks, or until the tumor implant had grown to a size of approximately 0.5 grams as described by Hagan, P.L., et al. J. Nuc. Med., 26 1418-1423 (1985). Mice were kept in a sterile environment to prevent complications due to bacterial or viral infections. Biodistributions were performed as described by Halpern, S., et al., Cancer Res. 43, 5347-5355 (1983). Briefly, the radiolabeled haptens were injected intravenously in […], and the pharmacokinetics were evaluated at several time points post-injection. At these times, mice were sacrificed and weighed. Organs were removed, their weight recorded, and each organ was then washed in sterile PBS, pH 7.0, and fixed in formalin solution. Samples of blood, urine and feces also were collected and their weight similarly recorded. The organs, or a portion thereof, were transferred to clean tubes and their radioactive content was determined in a well-type gamma-counter.
Relative radioactive content of each organ was expressed as a percentage of injected dose per organ.
To indium-label the haptens of the invention 10 »l of 0.1 mM ligand was combined with X »l of ¹¹¹InCl₃ (in 50 mM HCl) and (x+10) »l of 0.26 M ammonium citrate, pH 6.0. X is calculated by the following equation: X = (200 »Ci)/(A »Ci/»l) [formula] where A is the specific activity of the ¹¹¹In.
The labeling was done in an acid-washed microfuge tube. After combining all of the components above, the solution was vortexed and allowed to stand at room temperature for 15 minutes.
Incorporation of the ¹¹¹In into the chelating agent was determined by TLC on silica in a methanol/aqueous ammonium acetate solvent system as described by Meares, et al. (Anal. Biochem., 142, 68-75 (1984)). Greater than 95% incorporation of the radioactivity into the chelate was required for the sample to be submitted for a biodistribution assay.
Prior to injection the ¹¹¹In-labeled hapten was diluted into freshly prepared isotonic sodium bicarbonate (1.39% w/v) containing 1 mg/ml normal human serum albumin (Buminate, 25% solution, Travenol Laboratories, Glendale, California) to which the bifunctional antibody had been added. The final composition of the solution was 0.2 mg/ml ECH037.2, 0.5 »M chelate, 0.1 »Ci/»l ¹¹¹In, all in a volume of 2.0 ml. For the biodistribution studies, 100 »l of the solution was injected into the tail vein of each animal.

SMILES | t1/2, Dissociation Half-Lives [1] | % DOSE PER GRAM, KIDNEY (T-380 tumors; 24 hours) | % DOSE PER GRAM, LIVER (T-380 tumors; 24 hours) | % DOSE PER GRAM, TUMOR (T-380 tumors; 24 hours) | FECES (T-380 tumors; 24 hours) | TOTAL RECOV (T-380 tumors; 24 hours) | URINE (T-380 tumors; 24 hours) | % DOSE PER GRAM, BLOOD (T-380 tumors; 24 hours) | TUMOR/BLOOD (T-380 tumors; 24 hours) | Percent Injected Dose in Feces (T-380 tumors; 24 hrs.) | % DOSE PER GRAM, KIDNEY (T-380 tumors; 48 hours) | % DOSE PER GRAM, LIVER (T-380 tumors; 48 hours) | % DOSE PER GRAM, TUMOR (T-380 tumors; 48 hours) | FECES (T-380 tumors; 48 hours) | TOTAL RECOV (T-380 tumors; 48 hours) | URINE (T-380 tumors; 48 hours) | % DOSE PER GRAM, BLOOD (T-380 tumors; 48 hours) | TUMOR/BLOOD (T-380 tumors; 48 hours) | Percent Injected Dose in Feces (T-380 tumors; 48 hrs.) | other results
CCNC(=S)Nc1ccc(CC(CN(CC(=O)O)CC(=O)O)N(CC(=O)O)CC(=O)O)cc1 (stereo not shown) [ETUBE] | 1.21 h | 2.4 % DOSE PER GRAM | 3.5 % DOSE PER GRAM | 8.0 % DOSE PER GRAM | 5.9% of total injected dose | 52.2 | 25.8% of total injected dose | 10.4 % DOSE PER GRAM | 0.77 | 6.7 Percent Injected Dose | 1.2 % DOSE PER GRAM | 2.4 % DOSE PER GRAM | 10.4 % DOSE PER GRAM | 15.2% of total injected dose | 66.6 | 36.0% of total injected dose | 5.9 % DOSE PER GRAM | 1.76 | 15.2 Percent Injected Dose | amount of hapten in the tumor (T-380 tumors; 24 hrs., premix protocol): 8.0 percent injected dose/gram; injected material excreted in the feces (T-380 tumors; 48 hrs. post injection, premix protocol): 15.2% of the injected material; amount of hapten in the tumor (T-380 tumors; 48 hrs., premix protocol): 10.4 percent injected dose/gram
O=C(O)CCCC(=O)NCCNC(=S)Nc1ccc(CC(CN(CC(=O)O)CC(=O)O)N(CC(=O)O)CC(=O)O)cc1 (stereo not shown) [GNUBE] | 1.65 h | 2.7 % DOSE PER GRAM | 3.4 % DOSE PER GRAM | 9.0 % DOSE PER GRAM | 10.6% of total injected dose | 52.0 | 14.2% of total injected dose | 13.0 % DOSE PER GRAM | 0.70 | 10.6 Percent Injected Dose | 1.5 % DOSE PER GRAM | 2.4 % DOSE PER GRAM | 12.0 % DOSE PER GRAM | 17.8% of total injected dose | 63.1 | 26.9% of total injected dose | 8.0 % DOSE PER GRAM | 1.49 | 17.8 Percent Injected Dose | 
NCCNC(=S)Nc1ccc(CC(CN(CC(=O)O)CC(=O)O)N(CC(=O)O)CC(=O)O)cc1 (stereo not shown) [NUBE] | 0.76 h | 4.0 % DOSE PER GRAM | 3.1 % DOSE PER GRAM | 8.5 % DOSE PER GRAM | 5.9% of total injected dose | 66.3 | 42.5% of total injected dose | 5.9 % DOSE PER GRAM | 1.44 | 5.9 Percent Injected Dose | 2.5 % DOSE PER GRAM | 1.9 % DOSE PER GRAM | 8.1 % DOSE PER GRAM | 12.9% of total injected dose | 74.1 | 52.6% of total injected dose | 2.0 % DOSE PER GRAM | 4.0 | 12.9 Percent Injected Dose | %Dose per Gram, Blood (T-380 tumors; 24 hrs. post-injection): 5.8 %Dose per Gram; %Dose per Gram, Tumor (T-380 tumors; 24 hrs. post-injection): 11.7 %Dose per Gram; %Dose per Gram, Blood (T-380 tumors; 48 hrs. post-injection): 3.3 %Dose per Gram; %Dose per Gram, Tumor (T-380 tumors; 48 hrs. post-injection): 12.2 %Dose per Gram; %Dose per Gram, Blood (T-380 tumors; 72 hrs. post-injection): 0.7 %Dose per Gram; %Dose per Gram, Tumor (T-380 tumors; 72 hrs. post-injection): 10.5 %Dose per Gram
O=C(O)CCNC(=S)Nc1ccc(CC(CN(CC(=O)O)CC(=O)O)N(CC(=O)O)CC(=O)O)cc1 (stereo not shown) [PATUBE] | 1.46 h | 2.2 % DOSE PER GRAM | 3.3 % DOSE PER GRAM | 10.6 % DOSE PER GRAM | 5.0% of total injected dose | 53.7 | 23.6% of total injected dose | 12.2 % DOSE PER GRAM | 0.87 | 5.0 Percent Injected Dose | 1.7 % DOSE PER GRAM | 2.4 % DOSE PER GRAM | 9.8 % DOSE PER GRAM | 8.9% of total injected dose | 61.7 | 36.0% of total injected dose | 7.6 % DOSE PER GRAM | 1.29 | 8.9 Percent Injected Dose | 
